Test results taken from US20140303396A1, “Method for Preparing High-Purity Fesoterodine Fumarate” (CHEMI S.P.A., priority 2009, published 2014).

Key:
[1] = Solid stability at T = 60° C. in atmosphere with 60% relative humidity (HPLC); type: physicochemical; parameters: Impurity RRt = 1.05 / Impurity RRt = 1.34 / Diester impurity: unit not given here
Method: In confirmation thereof, another stability test was carried out at 60° C. on the crystallized solid product, whose results are reported in Table 2. In detail, the experiment consists of introducing a sample of fesoterodine fumarate in an oven capable of maintaining a temperature of 60° C. and 60% relative humidity, drawing samples of the freshly introduced substance (time 0) after 24, 48, 72 and 144 hours staying in such conditions, and analyzing them in HPLC in order to verify their purity.

[2] = Solution stability in methylethylketone at T = 40° C. (HPLC); type: physicochemical
Method: In detail, the experiment related to Table 1 consists of dissolving fesoterodine fumarate in methylethylketone at 40° C., drawing samples of the freshly dissolved solution (time 0), after 1, 3 and 20 hours of maintenance at 40° C. and analyzing them in HPLC in order to verify their purity.

(R)-feso-deacyl ([1]; t = 0): 0.02% | Diester impurity ([1]; t = 0): 0.04 | Feso fumaric ester impurity ([1]; t = 0): 0.09 | HPLC Purity ([1]; t = 0): 99.85 Area % | (R)-feso-deacyl ([1]; t = 24 h): 0.02% | Diester impurity ([1]; t = 24 h): 0.04 | Feso fumaric ester impurity ([1]; t = 24 h): 0.11 | HPLC Purity ([1]; t = 24 h): 99.83 Area % | (R)-feso-deacyl ([1]; t = 48 h): 0.02% | Diester impurity ([1]; t = 48 h): 0.04 | Feso fumaric ester impurity ([1]; t = 48 h): 0.12 | HPLC Purity ([1]; t = 48 h): 99.74 Area % | Impurity RRt = 1.34 ([1]; t = 48 h): 0.08 | (R)-feso-deacyl ([1]; t = 72 h): 0.03% | Diester impurity ([1]; t = 72 h): 0.04 | Feso fumaric ester impurity ([1]; t = 72 h): 0.13 | HPLC Purity ([1]; t = 72 h): 99.72 Area % | Impurity RRt = 1.05 ([1]; t = 72 h): 0.02 | Impurity RRt = 1.34 ([1]; t = 72 h): 0.06 | (R)-feso-deacyl ([1]; t = 144 h): 0.05% | Diester impurity ([1]; t = 144 h): 0.04 | Feso fumaric ester impurity ([1]; t = 144 h): 0.14 | HPLC Purity ([1]; t = 144 h): 99.64 Area % | Impurity RRt = 1.05 ([1]; t = 144 h): 0.03 | Impurity RRt = 1.34 ([1]; t = 144 h): 0.07 | RRt = 1.86 ([1]; t = 144 h): 0.03% | Feso fumaric ester impurity ([2]; t = 0): 0.07 | HPLC Purity ([2]; t = 0): 99.87 Area % | Impurity RRt = 1.34 ([2]; t = 0): 0.06 | Feso fumaric ester impurity ([2]; t = 1 hour): 0.09 | HPLC Purity ([2]; t = 1 hour): 99.85 Area % | Impurity RRt = 1.34 ([2]; t = 1 hour): 0.06 | (R)-feso-deacyl ([2]; t = 3 hours): 0.01% | Diester impurity ([2]; t = 3 hours): 0.04 | Feso fumaric ester impurity ([2]; t = 3 hours): 0.12 | HPLC Purity ([2]; t = 3 hours): 99.77 Area % | Impurity RRt = 1.34 ([2]; t = 3 hours): 0.06 | (R)-feso-deacyl ([2]; t = 20 hours): 0.02% | Diester impurity ([2]; t = 20 hours): 0.06 | Feso fumaric ester impurity ([2]; t = 20 hours): 0.14 | HPLC Purity ([2]; t = 20 hours): 99.70 Area % | Impurity RRt = 1.34 ([2]; t = 20 hours): 0.08
Compound: CC(C)C(=O)Oc1ccc(CO)cc1[C@H](CCN(C(C)C)C(C)C)c1ccccc1.O=C(O)/C=C/C(=O)O [fesoterodine fumarate, 2-((R)-3-diisopropylammonium-1-phenylpropyl)-4-(hydroxymethyl) phenyl isobutyrate hydrogen fumarate]
